pIC50: −log10 of the molar value. Read-outs that look alike come from different tables or passages of the source.
How the values were obtained:
BRD4-BD1 = BRD4-BD1 (Homo sapiens (Human), UniProt O60885); experiment: BRD4 AlphaScreen Assay (Example A1), BRD4-BD1; assay type: binding; conditions: Assay A1, 3.8 nM BRD4-BD1, 50 nM H4Ac4 peptide; read-out: BRD4 BD-1 enzyme IC50
Description: (§1) BRD4-BD1 and BRD4-BD2 assays were conducted in white 384-well polystyrene plate in a final volume of 20 μL for BD1 and 40 μL for BD2. Inhibitors were first serially diluted in DMSO and added to the plate wells before the addition of other reaction components. […] After plate sealing, the plate was incubated in the dark at room temperature for 75 min. before reading on a PHERAstar FS plate reader (BMG Labtech). IC50 determination was performed by fitting the curve of percent control activity versus the log of the inhibitor concentration using the GraphPad Prism 5.0 software.

BRD4-BD2 = BRD4-BD2 (Homo sapiens (Human), UniProt O60885); experiment: BRD4 AlphaScreen Assay (Example A1), BRD4-BD2; assay type: binding; conditions: Assay A1, 20 nM BRD4-BD2, 50 nM H4Ac4 peptide; read-out: BRD4 BD-2 enzyme IC50
Description: as §1

KMS.12.BM cells = experiment: KMS.12.BM Cell Viability Assay (Example B1); assay type: cell-based, human; conditions: 3 days, Cell Titer-GLO, read-out: KMS cellular IC50
Description: KMS.12.BM cell line (human myeloma) was purchased from JCRB (Osaka, Japan) and maintained in RPMI with 10% FBS culture medium. To measure the cytotoxic activity of the compounds through ATP quantitation, the KMS.12.BM cells are plated in the RPMI culture medium at 5000 cells/well/per 100 μL into a 96-well polystyrene clear black tissue culture plate (Greiner-bio-one through VWR, NJ), in the presence or absence of a concentration range of test compounds. After 3 days, […] Cell Titer-GLO Luminescent (Promega, Madison, Wis.) cell culture agent is added to each well for 10 min. at room temperature to stabilize the luminescent signal. This determines the number of viable cells in culture based on quantitation of the ATP present, which signals the presence of metabolically active cells.

BET proteins = experiment: BET protein inhibition, assay not specified; conditions: comparison of chiral HPLC peaks

`Cc1noc(C)c1-c1ccc2[nH]c(=O)n3c2c1OCC3c1ccccn1` (racemic) [Example 13, 7-(3,5-Dimethylisoxazol-4-yl)-4-pyridin-2-yl-4,5-dihydroimidazo[1,5,4-de][1,4]benzoxazin-2(1H)-one] showed a pIC50 (BRD4-BD1) greater than 7.00, a pIC50 (BRD4-BD2) greater than 7.00 and a pIC50 (KMS.12.BM cells; Homo sapiens, KMS-12-BM, 72 h) greater than 6.00.

With `Cc1noc(C)c1-c1ccc2[nH]c(=O)n3c2c1OCC3c1ccccn1` (single isomer, unassigned) [Example 15, 7-(3,5-Dimethylisoxazol-4-yl)-4-pyridin-2-yl-4,5-dihydroimidazo[1,5,4-de][1,4]benzoxazin-2(1H)-one] the pIC50 (BRD4-BD1) was greater than 7.00, the pIC50 (BRD4-BD2) was greater than 7.00 and the pIC50 (KMS.12.BM cells; Homo sapiens, KMS-12-BM, 72 h) was greater than 6.00.

With `Cc1noc(C)c1-c1ccc2nc(N3CCCC(O)C3)n3c2c1OCC3c1ccccc1` (stereo not shown) [Example 58, 1-[7-(3,5-Dimethylisoxazol-4-yl)-4-phenyl-4,5-dihydroimidazo[1,5,4-de][1,4]benzoxazin-2-yl]piperidin-3-ol] the pIC50 (BRD4-BD1) was greater than 7.00 and the pIC50 (BRD4-BD2) was greater than 7.00.

`Cc1n[nH]cc1-c1ccc2[nH]c(=O)n3c2c1OCC3c1ccccc1` (stereo not shown) [Example 12, 7-(3-Methyl-1H-pyrazol-4-yl)-4-phenyl-4,5-dihydroimidazo[1,5,4-de][1,4]benzoxazin-2(1H)-one] was tested, and the pIC50 (BRD4-BD1) was 6.00 to 7.00 and the pIC50 (BRD4-BD2) was greater than 7.00.

In the case of `Cc1noc(C)c1-c1ccc2[nH]c(=O)n3c2c1OCC3c1ccccc1` (single isomer, unassigned) [Example 1B, 7-(3,5-Dimethylisoxazol-4-yl)-4-phenyl-4,5-dihydroimidazo[1,5,4-de][1,4]benzoxazin-2(1H)-one], the “relative activity of separated enantiomers” value (BET proteins) was “less active”.

`Cc1noc(C)c1-c1ccc2[nH]c(=O)n3c2c1OCC3c1ccccc1OCC(=O)NCCO` (stereo not shown) [Example 50, 2-{2-[7-(3,5-Dimethylisoxazol-4-yl)-2-oxo-1,2,4,5-tetrahydroimidazo[1,5,4-de][1,4]benzoxazin-4-yl]phenoxy}-N-(2-hydroxyethyl)acetamide] gave a pIC50 (BRD4-BD1) greater than 7.00 and a pIC50 (BRD4-BD2) greater than 7.00.

Work on `Cc1noc(C)c1-c1ccc2[nH]c(=O)n3c2c1OCC3c1nccs1` (stereo not shown) [Example 21, 7-(3,5-Dimethylisoxazol-4-yl)-4-(1,3-thiazol-2-yl)-4,5-dihydroimidazo[1,5,4-de][1,4]benzoxazin-2(1H)-one] yielded a pIC50 (BRD4-BD1) greater than 7.00 and a pIC50 (BRD4-BD2) greater than 7.00.

`Cc1noc(C)c1-c1ccc2[nH]c(=O)n3c2c1OCC3c1ccccn1` (single isomer, unassigned) [Example 14, 7-(3,5-Dimethylisoxazol-4-yl)-4-pyridin-2-yl-4,5-dihydroimidazo[1,5,4-de][1,4]benzoxazin-2(1H)-one] was tested, and the pIC50 (BRD4-BD1) was 5.00 to 6.00 and the pIC50 (BRD4-BD2) was 5.00 to 6.00.

`Cc1noc(C)c1-c1ccc2nc(N3CC(O)C3)n3c2c1OCC3c1ccccc1` (stereo not shown) [Example 59, 1-[7-(3,5-Dimethylisoxazol-4-yl)-4-phenyl-4,5-dihydroimidazo[1,5,4-de][1,4]benzoxazin-2-yl]azetidin-3-ol] was tested, and the pIC50 (BRD4-BD1) was greater than 7.00 and the pIC50 (BRD4-BD2) was greater than 7.00.

`CCNC(=O)COc1ccccc1C1COc2c(-c3c(C)noc3C)ccc3[nH]c(=O)n1c23` (stereo not shown) [Example 22, 2-{2-[7-(3,5-Dimethylisoxazol-4-yl)-2-oxo-1,2,4,5-tetrahydroimidazo[1,5,4-de][1,4]benzoxazin-4-yl]phenoxy}-N-ethylacetamide] showed a pIC50 (BRD4-BD1) greater than 7.00 and a pIC50 (BRD4-BD2) greater than 7.00.

For `Cc1noc(C)c1-c1ccc2nc(NC(C)(C)CO)n3c2c1OCC3c1ccccc1` (stereo not shown) [Example 33, 2-{[7-(3,5-Dimethylisoxazol-4-yl)-4-phenyl-4,5-dihydroimidazo[1,5,4-de][1,4]benzoxazin-2-yl]amino}-2-methylpropan-1-ol], the pIC50 (BRD4-BD1) was 5.00 to 6.00 and the pIC50 (BRD4-BD2) was 6.00 to 7.00.

Molecule `Cc1noc(C)c1-c1ccc2nc(NC(C)C)n3c2c1OCC3c1ccccc1` (stereo not shown) [Example 25, 7-(3,5-Dimethylisoxazol-4-yl)-N-isopropyl-4-phenyl-4,5-dihydroimidazo[1,5,4-de][1,4]benzoxazin-2-amine] has a pIC50 (BRD4-BD1) greater than 7.00 and a pIC50 (BRD4-BD2) greater than 7.00.

For `Cc1noc(C)c1-c1ccc2[nH]c(=O)n3c2c1OCC3c1ccccc1` (single isomer, unassigned) [Example 1A, 7-(3,5-Dimethylisoxazol-4-yl)-4-phenyl-4,5-dihydroimidazo[1,5,4-de][1,4]benzoxazin-2(1H)-one], the “relative activity of separated enantiomers” value (BET proteins) was “more active”.

With `COc1cccc(C2COc3c(-c4c(C)noc4C)ccc4[nH]c(=O)n2c34)c1` (stereo not shown) [Example 6, 7-(3,5-Dimethylisoxazol-4-yl)-4-(3-methoxyphenyl)-4,5-dihydroimidazo[1,5,4-de][1,4]benzoxazin-2(1H)-one] the pIC50 (BRD4-BD1) was greater than 7.00 and the pIC50 (BRD4-BD2) was greater than 7.00.

`Cc1noc(C)c1-c1ccc2[nH]c(=O)n3c2c1OCC3c1cccnc1` (stereo not shown) [Example 5, 7-(3,5-Dimethylisoxazol-4-yl)-4-pyridin-3-yl-4,5-dihydroimidazo[1,5,4-de][1,4]benzoxazin-2(1H)-one] gave a pIC50 (BRD4-BD1) greater than 7.00 and a pIC50 (BRD4-BD2) greater than 7.00.

For `Cc1noc(C)c1-c1ccc2ncn3c2c1OCC3c1ccccc1` (stereo not shown) [Example 39, 7-(3,5-Dimethylisoxazol-4-yl)-4-phenyl-4,5-dihydroimidazo[1,5,4-de][1,4]benzoxazine], the pIC50 (BRD4-BD1) was greater than 7.00 and the pIC50 (BRD4-BD2) was greater than 7.00.

`Cc1cc(-c2ccnn2C)c2c3c1[nH]c(=O)n3C(c1ccccc1)CO2` (stereo not shown) [Example 37, 9-Methyl-7-(1-methyl-1H-pyrazol-5-yl)-4-phenyl-4,5-dihydroimidazo[1,5,4-de][1,4]benzoxazin-2(1H)-one] showed a pIC50 (BRD4-BD1) of 6.00 to 7.00 and a pIC50 (BRD4-BD2) greater than 7.00.

Molecule `Cc1noc(C)c1-c1ccc2[nH]c(=O)n3c2c1OCC3c1ccc(F)cc1F` (stereo not shown) [Example 8, 7-(3,5-Dimethylisoxazol-4-yl)-4-(2,4-difluorophenyl)-4,5-dihydroimidazo[1,5,4-de][1,4]benzoxazin-2(1H)-one] has a pIC50 (BRD4-BD1) greater than 7.00 and a pIC50 (BRD4-BD2) greater than 7.00.

Molecule `Cc1noc(C)c1-c1ccc2[nH]c(=O)n3c2c1OC(C)C3c1ccccc1` (stereo not shown) [Example 3, 7-(3,5-Dimethylisoxazol-4-yl)-5-methyl-4-phenyl-4,5-dihydroimidazo[1,5,4-de][1,4]benzoxazin-2(1H)-one] has a pIC50 (BRD4-BD1) greater than 7.00 and a pIC50 (BRD4-BD2) greater than 7.00.

Molecule `Cc1noc(C)c1-c1ccc2[nH]c(=O)n3c2c1OCC3c1ccc(C#N)cc1` (stereo not shown) [Example 4, 4-[7-(3,5-Dimethylisoxazol-4-yl)-2-oxo-1,2,4,5-tetrahydroimidazo[1,5,4-de][1,4]benzoxazin-4-yl]benzonitrile] has a pIC50 (BRD4-BD1) greater than 7.00 and a pIC50 (BRD4-BD2) greater than 7.00.

Molecule `Cc1noc(C)c1-c1ccc2nc(N3CC[C@@H](O)C3)n3c2c1OCC3c1cccnc1` (single isomer, unassigned) [Example 159C] has a pIC50 (KMS.12.BM cells) of 5.00 to 6.00.

Work on `Cc1noc(C)c1-c1ccc2c3c1OCC(c1ccccc1)n3c(=O)n2CCN1CCOCC1` (stereo not shown) [Example 10, 7-(3,5-Dimethylisoxazol-4-yl)-1-(2-morpholin-4-ylethyl)-4-phenyl-4,5-dihydroimidazo[1,5,4-de][1,4]benzoxazin-2(1H)-one] yielded a pIC50 (BRD4-BD1) of 6.00 to 7.00 and a pIC50 (BRD4-BD2) greater than 7.00.

With `Cc1noc(C)c1-c1ccc2nc(N(C)C)n3c2c1OCC3c1ccccc1` (stereo not shown) [Example 28, 7-(3,5-Dimethylisoxazol-4-yl)-N,N-dimethyl-4-phenyl-4,5-dihydroimidazo[1,5,4-de][1,4]benzoxazin-2-amine] the pIC50 (BRD4-BD1) was greater than 7.00 and the pIC50 (BRD4-BD2) was greater than 7.00.

With `Cc1noc(C)c1-c1ccc2nc(N3CCC(O)CC3)n3c2c1OCC3c1ccccc1` (stereo not shown) [Example 57, 1-[7-(3,5-Dimethylisoxazol-4-yl)-4-phenyl-4,5-dihydroimidazo[1,5,4-de][1,4]benzoxazin-2-yl]piperidin-4-ol] the pIC50 (BRD4-BD1) was greater than 7.00 and the pIC50 (BRD4-BD2) was greater than 7.00.

Work on `Cc1noc(C)c1-c1ccc2[nH]c(=O)n3c2c1OCC3C1CCCCC1` (stereo not shown) [Example 17, 4-Cyclohexyl-7-(3,5-dimethylisoxazol-4-yl)-4,5-dihydroimidazo[1,5,4-de][1,4]benzoxazin-2(1H)-one] yielded a pIC50 (BRD4-BD1) greater than 7.00 and a pIC50 (BRD4-BD2) greater than 7.00.

Reference: patent US9624241B2 (Incyte Corporation, priority 2013, dated 2017)
